Structures are written as SMILES.

Assay [1] relates to adult mice sympathetic nerve endings damaged by 6-hydroxy-dopamine (6-OHDA). Nature of the assay: adult mice sympathetic nerve endings damaged by 6-OHDA, residual noradrenaline in submaxillary glands. As to conditions: 10 mg/kg subcutaneous injection; 6-OHDA 8 mg/kg intraperitoneal; measured two weeks after last administration, HPLC-electrochemical detector. It is filed as in vivo. The method, then: The neurotrophic activity of the compounds of the present invention can also be determined in several animal pharmacological models in vivo, such as the model of adult mice sympathetic nerve endings damaged by 6-hydroxy-dopamine (6-OHDA).
Kunming species female mice (□) having a body weight of 18-22 g are randomly divided into the following groups: normal control group, model control group, FK506 (2 mg/kg) group, and the group of compound of the present invention (10 mg/kg) (10 mice per group). The mice are administrated with 6-OHDA (8 mg/kg) by intraperitoneal injection before 4 hours and after 4 continuous days of subcutaneous injection of the compound, while the control groups are administrated with the equivalent quantity of carrier by subcutaneous injection. After two weeks of the last administration, the mice are killed by luxation, and the two submaxillary glands of each of the mice are rapidly excised and weighed, placed in a glass grinder, then is homogenated with a homogenating liquid containing internal-standard, and centrifuged at 2000 g for 30 minutes. 20 μL of the obtained supernatant is directly injected in an HPLC-electrochemical detector to measure the content of noradrenaline (NE) in the submaxillary glands of the mice. […]

In assay [2] the test system is chick embryos dorsal root ganglia. The assay is described as follows: chick embryos dorsal root ganglion cultures free of serum, neurite process growth. It is filed as cell-based. As to conditions: for Average scoring: 48 h, neurite score 0-3, average of 10 ganglia, control (NGF only) 0.33. The method, then: The neurotrophic activity of compounds of the present invention can be determined through several biological models in vitro, e.g. the model of chick embryos dorsal root ganglion cultures free of serum in vitro.
In a sterile environment, dorsal root ganglia were dissected from chick embryos of 8 days gestation and inoculated in rat rail collagen coated culture bottles (5 to 6 dorsal root ganglia per bottle, and two bottles per dosage). After 1 hour of attachment in a 37° C., 5% CO2 incubator, NGF (0.15 ng/ml) containing culture medium free of serum (DMEM) and the compound of the present invention were added. The control groups were treated only with the same amount of NGF and culture medium. […] Five to six DRGs were cultured per bottle, and each treatment was performed in duplicate. The results of illustrative compound of example 15 promoting the growth of chick embryos dorsal root ganglia processes were outlined in table 1, wherein the scoring is the average scoring of 10 ganglia.
FIG. 1 indicates the growth of neurites of chick dorsal root ganglia under various dosages of the compound of example 15. A represents that chick embryos dorsal root ganglia with rare processes is caused by the treatment of sole NGF (0.15 ng/mL).

As to `CC(C)(C)C(=O)C(=O)N1CSC(C)(C)[C@@H]1C(=O)OCCCc1ccccc1` [Example 17, 3-phenyl-1-propyl (2S)-5,5-dimethyl-1-(3,3-dimethyl-1,2-dioxobutyl)-2-(4-thiazolidine)carboxylate], in assay [1], the “level of residual NE in the submaxillary glands of the mice (FIG. 2)” value was “raise the residual NE level”.

On to `CC(C)(C)C(=O)C(=O)N1CSC(C)(C)[C@@H]1C(=O)OCCCc1cccnc1` [Example 15, 3-(3-pyridyl)-1-propyl (2S)-5,5-dimethyl-1-(3,3-dimethyl-1,2-dioxobutyl)-2-(4-thiazolidine)carboxylate], for which the “level of residual NE in the submaxillary glands of the mice (FIG. 2)” value in assay [1] is on record as “raise the residual NE level”. Also, the Average scoring in assay [2] (1 pM compound + NGF (0.15 ng/mL) in DMEM) worked out at 1.00; in assay [2] (10 pM compound + NGF (0.15 ng/mL) in DMEM) it was 1.31; in assay [2] (100 pM compound + NGF (0.15 ng/mL) in DMEM) it was 1.57. Besides, the “growth of neurites of chick dorsal root ganglia (FIG. 1)” value in assay [2] (1 pM compound + NGF (0.15 ng/mL), FIG. 1 B) is on record as “enhances the improving effect of sole NGF (0.15 ng/mL) on the growth of neurites”; in assay [2] (10 pM compound + NGF (0.15 ng/mL), FIG. 1 C, compared with 1 pM), “stronger effect on the growth of neurites”; in assay [2] (100 pM compound + NGF (0.15 ng/mL), FIG. 1 D, compared with A, B and C), “strongest effect”.

For the origin of these results see patent US7262183B2, “Substituted 5-membered n-heterocyclic compounds and their uses for treating or preventing neurodegenerative diseases” (Instititute of Pharmacology and Toxicology, priority 2001, dated 2007).
